Laboratory results as given in patent US4960815A, “Isotopically-labeled polycyclic amine derivatives” (Warner-Lambert Company, priority 1990, dated 1990).

Biological target: PCP receptors
Test: Tritiated TCP binding, designated RBS1
Description: Tritiated TCP binding, designated RBS1, was carried out essentially as described in J Pharmacol Exp Ther, 238, 739-748 (1986).

## c1csc(C2(N3CCCCC3)CCCCC2)c1 [TCP, 1-[1-(2-thienyl)cyclohexyl]piperidine]
  IC50: 9 nM
